The source of these data is patent US20260008760A1, “DIPEPTIDYL PEPTIDASE 1 INHIBITORS AND USES THEREOF” (Insmed Incorporated, priority 2024, published 2026).

The target in experiment [1] is human DPP1 enzyme (Homo sapiens, UniProt P53634). Put plainly: Human DPP1 Enzyme IC50 Assay. On the set-up: was first proteolytically processed into its mature form using recombinant human cathepsin L; purchased R&D Systems. The class given is biochemical. Here is the method: Example 97. Human DPP1 Enzyme IC50 Assay
Sequence of human DPP1 enzyme (P53634 25-134 limits assumed): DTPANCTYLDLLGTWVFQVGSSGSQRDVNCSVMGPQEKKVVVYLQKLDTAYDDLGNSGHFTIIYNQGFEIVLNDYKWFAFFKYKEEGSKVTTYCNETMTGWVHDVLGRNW
Sequence of human DPP1 enzyme (P53634 231-394 limits assumed): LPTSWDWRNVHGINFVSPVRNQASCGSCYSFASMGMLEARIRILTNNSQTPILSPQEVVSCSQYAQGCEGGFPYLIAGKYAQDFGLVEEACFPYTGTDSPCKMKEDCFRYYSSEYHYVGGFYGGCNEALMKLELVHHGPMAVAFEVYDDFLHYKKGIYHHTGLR
Sequence of human DPP1 enzyme (P53634 395-463 limits assumed): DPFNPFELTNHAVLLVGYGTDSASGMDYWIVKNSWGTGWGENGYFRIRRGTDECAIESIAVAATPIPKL
Recombinant human DPP1 enzyme (R&D Systems; Minneapolis, MN) was first proteolytically processed into its mature form using recombinant human cathepsin L (R&D Systems) in a buffer consisting of 20 mM citric acid pH 4.5, 150 mM NaCl, 1 mM EDTA and 10 mM DTT. Test articles were applied to activated human DPP1 enzyme in Assay Buffer (25 mM MES pH 6.0, 50 mM NaCl, 5 mM DTT) in a total reaction volume of 125 μL. 25 μL of compound in Assay Buffer plus 5% DMSO was first added to 50 μL of activated human DPP1 enzyme at a concentration of 1 ng/μL and allowed to pre-incubate for 10 minutes at 37° C. after which 50 μL of 1000 μM H-Gly-Arg-AMC substrate (Bachem; St. Torrance, CA) was added, giving final substrate concentration of 400 μM and a final DMSO concentration of 1%. Substrate cleavage was measured for 90 minutes at 37° C., with fluorescence at Excitation/Emission 350/450 nm measured every 5 minutes. DPP1 concentration was interpolated based on its activity relative to a standard curve of activated human recombinant DPP1 enzyme. IC50 values for each compound were calculated via the XLFit (IDBS Version 5.3.1.3) Add-On to Microsoft Excel using the four parameter fit equation y={A+[(B−A)]/[1+((C/x)^D)]}, which appears as equation number 205 (4 Parameter Logistic Model or Sigmoidal Dose-Response Model) in XLFit. Default constraints were used for each Parameter. IC50 was defined as the compound concentration at which 50% of enzyme activity was inhibited when compared to the no-compound control.

In experiment [2] the target is DPP1 in HL-60 cells (Homo sapiens, UniProt P53634). The experiment can be described thus: DPP1 Cell IC50 assay. Type of experiment: cell-based. Also noted: host or cells: HL-60 cells. The settings on record: 60 min pre-incubation, H-Gly-Phe-AFC substrate, average of n runs. Here is the method:
Example 99. DPP1 Cell IC50 assay
HL-60 cells (ATCC; Manassas, VA) were maintained in RPMI-1640 supplemented with 20% heat-inactivated FBS and 1× Antibiotic Antimycotic (Cytiva; Marlborough, MA). Media was changed every three to four days and cells were not allowed to exceed 1×10^6 cells per mL. Prior to assay, cells were collected by centrifugation at 500 rcf for 3 minutes, resuspended in PBS and counted. Cells were diluted in PBS to a concentration of 5×10^5 live cells per mL and transferred to black 96-well plates for assay, 60 μL per well. Test articles were diluted in PBS plus 0.5% DMSO, and 20 μL was added to each assay well. Compound was allowed to pre-incubate with cells with gentle shaking at 100 rpm for 60 minutes at 37° C. in a cell culture incubator maintained at 5% CO2, after which 20 μL of 500 μM H-Gly-Phe-AFC substrate (MP Biomedicals; Solon, OH) was added to each well. Plates were returned to the incubator with shaking at 100 rpm for 30 minutes, after which fluorescence was measured at Excitation/Emission 400/505 nm. % Inhibition was calculated from RFU values compared to control cell wells that received only PBS plus 0.5% DMSO. IC50 values for each compound were calculated via the XLFit (IDBS Version 5.3.1.3) Add-On to Microsoft Excel using the four parameter fit equation y=(A+((B−A)/(1+((C/x)^D)))), which appears as equation number 205 (4 Parameter Logistic Model or Sigmoidal Dose-Response Model) in XLFit. IC50 was defined as the compound concentration at which 50% of enzyme activity was inhibited when compared to the no-compound control.

The mark [3] stands for this setting: activated recombinant human DPP1, 400 μM H-Gly-Arg-AMC, 10 minutes pre-incubation at 37° C., pH 6.0, average of n runs, read-out: Avg. IC50 (Human DPP1 enzyme IC50 value ranges).
The mark [4] stands for this setting: read-out: Avg. IC50 (DPP1 Cell IC50 value ranges).

The structures appear in SMILES notation. Like-named read-outs stand apart in the source and are kept apart here.

Sequence of DPP1 in HL-60 cells (P53634 25-463): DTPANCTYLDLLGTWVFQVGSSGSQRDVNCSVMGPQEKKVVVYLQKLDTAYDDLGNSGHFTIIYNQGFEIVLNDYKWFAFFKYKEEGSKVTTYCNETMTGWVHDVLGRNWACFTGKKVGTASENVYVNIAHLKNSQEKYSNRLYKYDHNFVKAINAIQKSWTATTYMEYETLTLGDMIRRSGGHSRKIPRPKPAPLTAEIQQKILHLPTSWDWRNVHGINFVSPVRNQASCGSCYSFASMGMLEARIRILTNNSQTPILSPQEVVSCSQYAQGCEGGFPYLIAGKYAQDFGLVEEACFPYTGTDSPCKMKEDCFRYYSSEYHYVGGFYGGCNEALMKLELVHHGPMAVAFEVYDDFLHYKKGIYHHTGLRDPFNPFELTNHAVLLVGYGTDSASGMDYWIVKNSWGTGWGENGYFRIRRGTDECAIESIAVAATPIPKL

The term IC50 denotes the concentration at which inhibition is half-maximal. As to `N#C[C@H](Cc1ccc(-c2cc3ccncc3[nH]2)cc1)NC(=O)[C@@H]1CNCCCO1` [Compound A7, (2S)—N-[(1S)-1-cyano-2-(4-{1H-pyrrolo[2,3-c]pyridin-2-yl}phenyl)ethyl]-1,4-oxazepane-2-carboxamide], the results for the concentration for half-maximal inhibition (IC50) in experiment [1] (setting [3]) and in experiment [2] (setting [4]) were > 15 nM and > 2.5 nM, respectively.

In the case of `N#C[C@H](Cc1ccc(C23CCC(C#N)(CC2)CC3)cc1)NC(=O)[C@@H]1CNCCCO1` [Compound 4], the IC50 is > 15 nM in experiment [1] (setting [3]) and > 2.5 nM in experiment [2] (setting [4]).

For the compound `CO[C@H]1CCO[C@H](C(=O)N[C@H](C#N)Cc2ccc(-c3cc4c(C)nc(C)cn4c3)s2)CNC1` [Compound A44, (2S,6S)—N-[(1S)-1-cyano-2-(5-{1,3-dimethylpyrrolo[1,2-a]pyrazin-7-yl}thiophen-2-yl)ethyl]-6-methoxy-1,4-oxazocane-2-carboxamide], the results for the concentration for half-maximal inhibition (IC50) in experiment [1] (setting [3]) and in experiment [2] (setting [4]) were > 15 nM and > 2.5 nM, respectively.

`N#C[C@H](Cc1ccc(-c2ccc3c(c2)C[C@]2(CCN(c4nccs4)C2)OC3)cc1)NC(=O)[C@@H]1CNCCCO1` [Compound I14]: the IC50 was > 15 nM in experiment [1] (setting [3]) and > 2.5 nM in experiment [2] (setting [4]).

As to `CN1C(=O)CCc2cc(-c3ccc(C[C@@H](C#N)NC(=O)[C@@H]4CNCC[C@@H](F)CO4)cc3)ccc21` [Compound A149], the IC50 in experiment [1] (setting [3]) is > 15 nM; in experiment [2] (setting [4]), 1 to 2.5 nM.

With `CO[C@@H]1CNC[C@@H](C(=O)N[C@H](C#N)Cc2ccc(-c3cc4c(C)nc(C)cn4c3)cc2F)OC1` [Compound A88-A], the values for the half-inhibitory concentration (IC50) in experiment [1] (setting [3]) and in experiment [2] (setting [4]) were > 15 nM and > 2.5 nM, respectively.

Regarding `N#CC(Cc1cc2c(cc1F)-c1cc(C3COC3)c(F)cc1CO2)NC(=O)[C@@H]1CNCCCCO1` (mixture of isomers) [Compound B10, (2S)—N-{1-cyano-2-[2,8-difluoro-9-(oxetan-3-yl)-6H-benzo[c]chromen-3-yl]ethyl}-1,4-oxazocane-2-carboxamide], the IC50 is 5 to 15 nM in experiment [1] (setting [3]) and 1 to 2.5 nM in experiment [2] (setting [4]).

In the case of `N#C[C@H](Cc1ccc(-c2ccc3c(c2)N(C(N)=O)CCC3)cc1)NC(=O)[C@@H]1CNCCCO1` [Compound A20, 7-{4-[(2S)-2-cyano-2-[(2S)-1,4-oxazepan-2-ylformamido]ethyl]phenyl}-3,4-dihydro-2H-quinoline-1-carboxamide], the concentration for half-maximal inhibition (IC50) in experiment [1] (setting [3]) is > 15 nM; in experiment [2] (setting [4]), > 2.5 nM.

As for `CCCCOCCn1c(=O)oc2ccc(-c3ccc(C[C@@H](C#N)NC(=O)[C@@H]4CNC(C)C(OC)CO4)c(F)c3)cc21` (stereo partly drawn) [Compound E1, (2S)—N-[(1S)-2-{4-[3-(2-butoxyethyl)-2-oxo-1,3-benzoxazol-5-yl]-2-fluorophenyl}-1-cyanoethyl]-6-methoxy-5-methyl-1,4-oxazepane-2-carboxamide], the IC50 is < 5 nM in experiment [1] (setting [3]) and 1 to 2.5 nM in experiment [2] (setting [4]).

In the case of `N#C[C@H](Cc1ccc(-c2ccc3c(c2)[C@]2(CCN(C#N)C2)SC3)cc1)NC(=O)[C@@H]1CNCCCO1` [Compound I18], the IC50 in experiment [1] (setting [3]) was > 15 nM; in experiment [2] (setting [4]) it was > 2.5 nM.

Take `N#C[C@H](Cc1ccc(-c2ccc3c(c2)C2(CCNC2)OC3=O)cc1)NC(=O)[C@@H]1CNCCCO1` (stereo partly drawn) [Compound 25, (2S)—N-[(1S)-1-cyano-2-(4-{3-oxospiro[2-benzofuran-1,3′-pyrrolidin]-6-yl}phenyl)ethyl]-1,4-oxazepane-2-carboxamide]: the results for the IC50 in experiment [1] (setting [3]) and in experiment [2] (setting [4]) were > 15 nM and > 2.5 nM, respectively.

Take `CO[C@@H]1CCNC[C@@H](C(=O)N[C@H](C#N)Cc2ccc(-c3cc4c(C)nc(C)cn4c3)c(F)c2)OC1` [Compound A35, (2S,7R)—N-[(1S)-1-cyano-2-(4-{1,3-dimethylpyrrolo[1,2-a]pyrazin-7-yl}-3-fluorophenyl)ethyl]-7-methoxy-1,4-oxazocane-2-carboxamide]: the IC50 was in the range of 5 to 15 nM in experiment [1] (setting [3]) and 1 to 2.5 nM in experiment [2] (setting [4]).

With `Cn1c(=O)oc2cc3c(cc21)-c1cc(F)c(CC(C#N)NC(=O)[C@@H]2CNCCCO2)cc1OC3` (stereo partly drawn) [Compound C1, (2S)—N-(1-cyano-2-{4-fluoro-15-methyl-14-oxo-8,13-dioxa-15-azatetracyclo[8.7.0.0^{2,7}0.0^{12,16}]heptadeca-1(10),2(7),3,5,11,16-hexaen-5-yl}ethyl)-1,4-oxazepane-2-carboxamide], the values for the IC50 in experiment [1] (setting [3]) and in experiment [2] (setting [4]) were < 5 nM and > 2.5 nM, respectively.

In the case of `CN1C(=O)C2(CCNCC2)c2cc(-c3ccc(C[C@@H](C#N)NC(=O)[C@@H]4CNCCCO4)cc3)ccc21` [Compound 23, (2S)—N-[(1S)-1-cyano-2-(4-{1-methyl-2-oxospiro[indole-3,4′-piperidin]-5-yl}phenyl)ethyl]-1,4-oxazepane-2-carboxamide], the IC50 was 5 to 15 nM in experiment [1] (setting [3]) and > 2.5 nM in experiment [2] (setting [4]).

For the compound `Cn1c(=O)oc2ccc3c(c21)COc1cc(C[C@@H](C#N)NC(=O)[C@@H]2CNCCCO2)c(F)cc1-3` [Compound C2-A], the values for the IC50 in experiment [1] (setting [3]) and in experiment [2] (setting [4]) were > 15 nM and 1 to 2.5 nM, respectively.

On to `N#C[C@H](Cc1ccc(-c2ccc3c(c2)[C@@]2(CCCN(C4CCCCC4)C2)CS3)cc1)NC(=O)[C@@H]1CNCCCO1` [Compound I9], for which the IC50 in experiment [1] (setting [3]) was 5 to 15 nM; in experiment [2] (setting [4]), > 2.5 nM.

Take `Cn1c(=O)oc2cc3c(cc21)-c1cc(F)c(C[C@@H](C#N)NC(=O)[C@@H]2CNCCCO2)cc1OC3` [Compound C1-B]: the IC50 is < 5 nM in experiment [1] (setting [3]) and 1 to 2.5 nM in experiment [2] (setting [4]).

For `N#C[C@H](Cc1ccc(-c2cc3n(c2)CCCNC3=O)cc1)NC(=O)[C@@H]1CNCCCO1` [Compound A12, (2S)—N-[(1S)-1-cyano-2-(4-{1-oxo-2H,3H,4H,5H-pyrrolo[1,2-a][1,4]diazepin-8-yl}phenyl)ethyl]-1,4-oxazepane-2-carboxamide], the figures for the IC50 in experiment [1] (setting [3]) and in experiment [2] (setting [4]) were > 15 nM and > 2.5 nM, respectively.

For `N#C[C@@H](Cc1cc2c(cc1F)-c1cc(C3COC3)c(F)cc1CO2)NC(=O)[C@@H]1CNCCCCO1` [Compound B10-A], the 50% inhibitory concentration (IC50) in experiment [1] (setting [3]) was > 15 nM; in experiment [2] (setting [4]), > 2.5 nM.

As to `Cn1ccc2ncc(-c3ccc(C[C@@H](C#N)NC(=O)[C@@H]4CNCCCO4)cc3)cc21` [Compound A143], the concentration for half-maximal inhibition (IC50) in experiment [1] (setting [3]) is > 15 nM; in experiment [2] (setting [4]), > 2.5 nM.

As to `CN1CCC2(CCc3cc4c(cc32)-c2cc(F)c(CC(C#N)NC(=O)[C@@H]3CNCCCO3)cc2OC4)CC1` (mixture of isomers) [Compound C3, (2S)—N-(1-cyano-2-{2-fluoro-1′-methyl-8,9-dihydro-6H-spiro[indeno[5,6-c]chromene-10,4′-piperidin]-3-yl}ethyl)-1,4-oxazepane-2-carboxamide], the IC50 in experiment [1] (setting [3]) was < 5 nM; in experiment [2] (setting [4]), > 2.5 nM.

`COC1CNC[C@@H](C(=O)N[C@H](C#N)Cc2ccc(-c3ccc4c(F)nn(C)c4c3)cc2F)OC1` (stereo partly drawn) [Compound A164]: the IC50 in experiment [1] (setting [3]) was < 5 nM; in experiment [2] (setting [4]), < 1 nM.

`N#C[C@H](Cc1cc2c(cc1F)-c1ccc(F)cc1CO2)NC(=O)[C@@H]1CNCCCO1` [Compound B35]: the values for the IC50 in experiment [1] and in experiment [2] (Avg. IC50 (DPP1 Cell IC50 value ranges)) were > 15 nM and > 2.5 nM, respectively.

For `CO[C@@H]1CCNC[C@@H](C(=O)N[C@H](C#N)Cc2ccc(-c3ccc4c(n3)CCCN4)cc2)OC1` [Compound A33, (2S,7R)—N—((S)-1-cyano-2-(4-(5,6,7,8-tetrahydro-1,5-naphthyridin-2-yl)phenyl)ethyl)-7-methoxy-1,4-oxazocane-2-carboxamide], the 50% inhibitory concentration (IC50) in experiment [1] (setting [3]) is < 5 nM; in experiment [2] (setting [4]), > 2.5 nM.
